Laboratory results: patent US20060089395A1, “Nf-kb activation inhibitors” (priority 2002, published 2006)
Like-named read-outs stand apart in the source and are kept apart here.

System: NF-κ B
Assay: Inhibitory activity of NF-κ B activation, luciferase reporter assay in HepG2 under TNF-α stimulation
Assay type: cell-based, human
Details: for inhibition at 1 µg/mL / inhibition at 10 µg/mL / inhibition at 0.1 µg/mL: Homo sapiens; for inhibition at 0.1 µg/mL: 0.1 μg/ml, read-out: Inhibitory Ratio of NF-κB Activation (%) 0.1 μg/ml
Method: Using a transfection reagent(Effectene; QIAGEN), the human hepatoma cell strain HepG2 was transfected with a plasmid(pNF κ B-Luc Reporter Plasmid; […]) which is integrated with an oligonucleotide having five tandem copies of NF-κ B binding sequences([…]) on a upstream region of firefly luciferase gene(Luc) according to the QIAGEN's protocol, and the cells were incubated for 6 to 24 hours. After the addition of TNF-α (40 ng/ml) in the presence or absence of a test compound, the cells were incubated for 4 hours, and intracellular luciferase activity was measured by using PicaGene LT (TOYO INK MFG Co., Ltd.) and a chemical luminescence measurement apparatus ([…]luor Plus; TECAN). The inhibitory ratio was measured as a ratio relative to the value of a luciferase activity in the absence of the test compound.

[1] = 1 μg/mL, HepG2, TNF-α (40 ng/ml), 4 hours
[2] = 10 μg/mL, HepG2, TNF-α (40 ng/ml), 4 hours
[3] = 1 μg/mL, HepG2, TNF-α (40 ng/ml), 4 hours, read-out: Inhibitory Ratio of NF-κ B Activation(%) Drug Concentration 1 μg/mL
[4] = 10 μg/mL, HepG2, TNF-α (40 ng/ml), 4 hours, read-out: Inhibitory Ratio of NF-κ B Activation(%) Drug Concentration 10 μg/mL
[5] = HepG2, 4 h, comparison table, reporter assay
[6] = HepG2, 4 h, 1 μg/ml, comparison table, reporter assay, read-out: Inhibitory Ratio of NF-κB Activation (%) 1 μg/ml
[7] = HepG2, 4 h, 10 μg/ml, comparison table, reporter assay, read-out: Inhibitory Ratio of NF-κB Activation (%) 10 μg/ml

SMILES | Inhibitory Ratio of NF-κ B Activation(%) Drug Concentration 1 μg/mL [1] [%] | Inhibitory Ratio of NF-κ B Activation(%) Drug Concentration 10 μg/mL [2] [%] | further results
O=C(Nc1cc(C(F)(F)F)ccc1N1CCOCC1)c1cc(Br)ccc1O [Compound No. 98] | 81.8 | 86.4 | –
CCOC(=O)c1sc(NC(=O)c2cc(-c3cccs3)ccc2O)nc1-c1ccccc1 [Compound No. 230, 2-[2-Hydroxy-5-(2-thienyl)benzoyl]amino-4-phenylthiazole-5-carboxylic acid ethyl ester] | – | – | inhibition at 1 µg/mL [3]: 40.8%; inhibition at 10 µg/mL [4]: 84.8%
O=C(Nc1nc(-c2ccccc2)c(-c2ccccc2)o1)c1cc(Br)ccc1O [Compound No. 235] | – | 81.8 | –
CC(C)(C)CC(C)(C)c1ccc(O)c(C(=O)Nc2cc(C(F)(F)F)cc(C(F)(F)F)c2)c1 [Compound No. 60] | 94.0 | 99.1 | –
O=C(Nc1cc(C(F)(F)F)ccc1Br)c1cc(Cl)ccc1O [Compound No. 107] | 94.9 | 96.2 | –
COc1ccc(C(=O)Nc2cc(C(F)(F)F)cc(C(F)(F)F)c2)c(O)c1 [Compound No. 65] | 83.3 | 89.8 | –
O=C(Nc1cc(C(F)(F)F)cc(C(F)(F)F)c1)c1cc(Br)cc(-c2ccccc2)c1O [Compound No. 259] | >99.9 | – | –
O=C(Nc1cc(C(F)(F)F)cc(C(F)(F)F)c1)c1ccc(O)cc1O [Compound No. 55] | 10.8 | 88.6 | –
O=C(Nc1cc(F)cc(C(F)(F)F)c1)c1cc(Cl)ccc1O [Compound No. 85] | 94.7 | 98.9 | –
CN1CCN(c2sc(NC(=O)c3cc(Br)ccc3O)nc2C(C)(C)C)CC1 [Compound No. 206, 5-Bromo-N-{4-[(1,1-dimethyl)ethyl]-5-(4-methylpiperazin-1-yl)thiazol-2-yl)-2-hydroxybenzamide] | – | – | inhibition at 1 µg/mL [3]: 36.3%; inhibition at 10 µg/mL [4]: 89.6%
O=C(Nc1cc(C(F)(F)F)cc(C(F)(F)F)c1)c1cc(NC(=S)Nc2ccccc2)ccc1O [Compound No. 47] | 51.8 | 97.2 | –
O=C(Nc1cc(C(F)(F)F)ccc1Oc1ccc(Cl)cc1)c1cc(Cl)ccc1O [Compound No. 118] | 95.0 | 99.5 | –
O=C(Nc1cnc2ccccc2c1)c1cc(Cl)ccc1O [Compound No. 242] | – | 85.7 | –
CNC(=O)c1sc(NC(=O)c2cc(Br)ccc2O)nc1-c1ccccc1 [Compound No. 220] | 50.8 | 58.6 | –
O=C(Nc1cc(C(F)(F)F)cc(C(F)(F)F)c1)c1cc(C(F)(F)C(F)(F)F)ccc1O [Compound No. 26] | 93.3 | 95.4 | –
COc1ccc(OC)c(NC(=O)c2cc(Br)ccc2O)c1 [Compound No. 142] | 32.4 | 95.7 | –
CC(=O)Oc1ccc(Cl)cc1C(=O)Nc1nc(C(C)(C)C)c(C(=O)C(C)(C)C)s1 [Compound No. 200] | 95.0 | 97.7 | –
O=C(Nc1ccc(O)c(C(=O)Nc2cc(C(F)(F)F)cc(C(F)(F)F)c2)c1)c1ccccc1 [Compound No. 45] | – | 63.4 | –
O=C(Nc1cc(C(F)(F)F)cc(C(F)(F)F)c1)c1cc(Cl)ccc1O [Compound No. 80] | 46.3 | 73.0 | –
O=C(Nc1cc(N2CCOCC2)ccc1[N+](=O)[O-])c1cc(Cl)ccc1O [Compound No. 174] | – | 89.6 | –

SMILES | Inhibitory Ratio of NF-κ B Activation(%) Drug Concentration 1 μg/mL [1] [%] | Inhibitory Ratio of NF-κ B Activation(%) Drug Concentration 10 μg/mL [2] [%] | further results
COc1ccc(C(N)=O)cc1NC(=O)c1cc(Cl)ccc1O [Compound No. 163] | 92.1 | 97.4 | –
Cc1cc(C)cc(NC(=O)c2cc(Br)ccc2O)c1 [Compound No. 137] | 86.3 | 92.6 | –
O=C(Nc1nc(-c2ccccc2)c(C(=O)c2ccccc2)s1)c1cc(Br)ccc1O [Compound No. 215, 5-Bromo-N-(5-benzoyl-4-phenylthiazol-2-yl)-2-hydroxybenzamide] | – | – | inhibition at 1 µg/mL [3]: 90.7%; inhibition at 10 µg/mL [4]: 97.3%
COc1ccc(C(F)(F)F)cc1NC(=O)c1cc(Cl)ccc1O [Compound No. 95] | 91.8 | 98.5 | –
O=C(Nc1cc(C(F)(F)F)cc(C(F)(F)F)c1)c1cc(N=Nc2ccc(S(=O)(=O)Nc3ccccn3)cc2)ccc1O [Compound No. 49] | 19.4 | 89.1 | –
O=C(Nc1ccc(C(F)(F)F)cc1)c1cc(Cl)ccc1O [drawing 561, reference compound] | – | – | inhibition at 0.1 µg/mL [5]: -35.5%; inhibition at 1 µg/mL [6]: 85.3%; inhibition at 10 µg/mL [7]: 95%
O=C(Nc1ccccc1C(F)(F)F)c1cc(Cl)ccc1O [drawing 562, reference compound] | – | – | inhibition at 0.1 µg/mL [5]: -18.4%; inhibition at 1 µg/mL [6]: 41.6%; inhibition at 10 µg/mL [7]: 92.9%
O=C(Nc1cc(C(F)(F)F)cc(C(F)(F)F)c1)c1cc(N=Nc2ccc([N+](=O)[O-])cc2)ccc1O [Compound No. 48] | 96.2 | 98.7 | –
O=C(Nc1nc(-c2ccc(Cl)cc2Cl)cs1)c1cc(Cl)ccc1O [Compound No. 255, 5-Chloro-2-hydroxy-N-[4-(2,4-dichlorophenyl)thiazol-2-yl]benzamide] | – | – | inhibition at 1 µg/mL [3]: > 99.9%
O=C(Nc1cc(C(F)(F)F)cc(C(F)(F)F)c1)c1cc(C(=O)N2CCCCC2)ccc1O [Compound No. 39, N-[3,5-Bis(trifluoromethyl)phenyl]-2-hydroxy-5-(piperidine-1-carbonyl)benzamide] | – | – | inhibition at 1 µg/mL [3]: 23.7%; inhibition at 10 µg/mL [4]: 82.2%
CN(C)S(=O)(=O)c1ccc(O)c(C(=O)Nc2cc(C(F)(F)F)cc(C(F)(F)F)c2)c1 [Compound No. 41, N-[3,5-Bis(trifluoromethyl)phenyl]-5-dimethylsufamoyl-2-hydroxybenzamide] | 42.2 | 95.9 | –
CC(C)(C)c1cc(NC(=O)c2cc(Cl)ccc2O)cc(C(C)(C)C)c1 [Compound No. 138, N-{3,5-bis[(1,1-dimethyl)ethyl]phenyl}-5-chloro-2-hydroxybenzamide] | – | – | inhibition at 1 µg/mL [3]: 89.6%; inhibition at 10 µg/mL [4]: 98.1%
O=C(Nc1cc(C(F)(F)F)cc(C(F)(F)F)c1)c1cc([N+](=O)[O-])ccc1O [Compound No. 8, N-[3,5-bis(trifluoromethyl)phenyl]-2-hydroxy-5-nitrobenzamide] | – | – | inhibition at 1 µg/mL [3]: 92%; inhibition at 10 µg/mL [4]: 99.2%
O=C(Nc1nc(-c2ccc(Cl)c(Cl)c2)cs1)c1cc(Cl)ccc1O [Compound No. 260, 5-Chloro-2-hydroxy-N-[4-(3,4-dichlorophenyl)thiazol-2-yl]benzamide] | – | – | inhibition at 1 µg/mL [3]: > 99.9%
CC(C)(C)c1csc(NC(=O)c2cc(Br)ccc2O)n1 [Compound No. 185, 5-Bromo-N-{4-[(1,1-dimethyl)ethyl]thiazol-2-yl}-2-hydroxybenzamide] | – | – | inhibition at 1 µg/mL [3]: 88.4%; inhibition at 10 µg/mL [4]: 95.2%
O=C(Nc1cc(C(F)(F)F)ccc1N1CCCCC1)c1cc(Cl)ccc1O [Compound No. 116] | 90.0 | 97.3 | –
O=C(Nc1cccc(Br)n1)c1cc(Cl)ccc1O [Compound No. 243] | 84.2 | 95.1 | –
CCCCCCOc1ccc(S(C)(=O)=O)cc1NC(=O)c1cc(Cl)ccc1O [Compound No. 165] | 95.9 | 99.4 | –
O=C(Nc1nc(-c2cc(C(F)(F)F)cc(C(F)(F)F)c2)cs1)c1cc(Cl)ccc1O [Compound No. 231, 5-Chloro-2-hydroxy-N-{4-[3,5-bis(trifluoromethyl)phenyl]thiazol-2-yl}benzamide] | – | – | inhibition at 1 µg/mL [3]: 95.9%; inhibition at 10 µg/mL [4]: 94.5%
O=C(Nc1cc([N+](=O)[O-])cc([N+](=O)[O-])c1)c1cc(Br)ccc1O [Compound No. 133] | 91.0 | 95.6 | –
